Legend:
[1] = target: T1, recombinant N-terminal MLH1 (residues 15-340) (Homo sapiens, UniProt P40692); experiment: Fluorescence Polarisation Assay for MLH1; assay type: binding; conditions: fluorescence polarisation probe displacement; 100 nM N-terminal MLH1, 5 nM probe compound
T1 construct: recombinant N-terminal MLH1 (residues 15-340)
T1 sequence (P40692 15-340): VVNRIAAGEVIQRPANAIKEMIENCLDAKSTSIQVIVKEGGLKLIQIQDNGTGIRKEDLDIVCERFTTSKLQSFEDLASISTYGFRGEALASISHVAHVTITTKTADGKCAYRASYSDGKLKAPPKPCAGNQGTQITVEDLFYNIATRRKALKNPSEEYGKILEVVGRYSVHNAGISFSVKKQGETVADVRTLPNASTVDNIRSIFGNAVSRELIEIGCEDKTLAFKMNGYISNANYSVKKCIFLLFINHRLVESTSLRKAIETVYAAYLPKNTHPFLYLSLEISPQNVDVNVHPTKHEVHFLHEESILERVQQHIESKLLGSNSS
In short: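 FP displacement assay: 100 nM MLH1 (residues 15-340) preincubated 30 min at room temperature with compound in 25 mM HEPES pH 7.5, 250 mM NaCl, 10 mM MgCl2, 0.01% Triton X-100, 5 mM DTT, then 5 nM rhodamine-labelled probe added and read immediately. Data normalised to no-inhibitor and no-enzyme controls.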

[2] = target: T2, recombinant N-terminal PMS2 (residues 1-365) (Homo sapiens, UniProt P54278); experiment: Fluorescence Polarisation Assay for PMS2; assay type: binding; conditions: fluorescence polarisation probe displacement; 10 nM N-terminal PMS2, 5 nM probe compound; read-out: PMS2 IC50
T2 construct: recombinant N-terminal PMS2 (residues 1-365)
T2 sequence (P54278 1-365): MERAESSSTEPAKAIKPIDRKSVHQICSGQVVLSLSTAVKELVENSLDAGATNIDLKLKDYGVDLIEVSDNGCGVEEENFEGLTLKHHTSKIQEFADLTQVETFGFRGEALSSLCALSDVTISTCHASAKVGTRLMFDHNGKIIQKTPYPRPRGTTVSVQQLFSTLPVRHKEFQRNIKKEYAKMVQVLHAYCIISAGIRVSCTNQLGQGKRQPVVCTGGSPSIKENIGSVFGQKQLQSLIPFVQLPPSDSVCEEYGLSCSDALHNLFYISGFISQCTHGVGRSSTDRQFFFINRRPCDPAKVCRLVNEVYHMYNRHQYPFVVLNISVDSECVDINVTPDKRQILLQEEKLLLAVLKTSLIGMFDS
In short: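 Competition fluorescence polarisation with 10 nM N-terminal PMS2 and 5 nM fluorescent probe (final), read after 1 h at room temperature following 30 min compound pre-incubation. Data normalised to no-inhibitor and no-enzyme controls; single-point screening or serial dilutions for potency.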

Row | IC50 [1] | IC50 [2] | SMILES
1 | < 1000 nM | < 1 µM | CN1C[C@H](Nc2cccc3c2CN(C(=O)c2c(O)cc(O)cc2OCc2ccccc2)C3)CC1=O [Example 136, (R)-4-((2-(2-(Benzyloxy)-4,6-dihydroxybenzoyl)isoindolin-4-yl)amino)-1-methylpyrrolidin-2-one]
2 | > 10000 nM | > 10 µM | O=C(Nc1cccc2c1CN(C(=O)c1c(O)cc(O)cc1OCc1ccccc1)CC2)C1CCOC1 (stereo not shown) [Example 102, N-(2-(2-(Benzyloxy)-4,6-dihydroxybenzoyl)-1,2,3,4-tetrahydroisoquinolin-8-yl) tetrahydrofuran-3-carboxamide]
3 | < 1000 nM | < 1 µM | CN1CCN(C(=O)c2cc3c(c(N[C@H]4CCOC4)c2)CN(C(=O)c2c(O)cc(O)cc2OCc2ccccc2)CC3)CC1 [Example 127, (S)-(2-(2-(Benzyloxy)-4,6-dihydroxybenzoyl)-8-((tetrahydrofuran-3-yl)amino)-1,2,3,4-tetrahydroisoquinolin-6-yl)(4-methylpiperazin-1-yl)methanone]
4 | 1000 to 10000 nM | 1 to 10 µM | O=C(c1c(O)cc(O)cc1OCC1CCCCC1)N1Cc2cccc(NC3CCOC3)c2C1 (stereo not shown) [Example 26, (2-(cyclohexylmethoxy)-4,6-dihydroxyphenyl)(4-((tetrahydrofuran-3-yl)amino)isoindolin-2-yl)methanone]
5 | 1000 to 10000 nM | 1 to 10 µM | O=C(c1c(O)cc(O)cc1OCc1ccccc1)N1CCc2cccc(Nc3cnccn3)c2C1 [Example 119, (2-(Benzyloxy)-4,6-dihydroxyphenyl)(8-(pyrazin-2-ylamino)-3,4-dihydroisoquinolin-2(1H)-yl)methanone]
6 | < 1000 nM | < 1 µM | CN(C)CCOc1cc2c(c(N[C@H]3CCOC3)c1)CN(C(=O)c1c(O)cc(O)cc1OCc1ccccc1)CC2 [Example 132, (S)-(2-(Benzyloxy)-4,6-dihydroxyphenyl)(6-(2-(dimethylamino)ethoxy)-8-((tetrahydrofuran-3-yl)amino)-3,4-dihydroisoquinolin-2(1H)-yl)methanone]
7 | 1000 to 10000 nM | 1 to 10 µM | Cn1ccc(Nc2cccc3c2CN(C(=O)c2c(O)cc(O)cc2OCc2ccccc2)CC3)cc1=O [Example 133, 4-((2-(2-(Benzyloxy)-4,6-dihydroxybenzoyl)-1,2,3,4-tetrahydro-isoquinolin-8-yl)amino)-1-methylpyridin-2(1H)-one]
8 | < 1000 nM | < 1 µM | CN1CCN(Cc2cc3c(c(N[C@H]4CCOC4)c2)CN(C(=O)c2c(O)cc(O)cc2OCc2ccccc2)CC3)CC1 [Example 121, (S)-(2-(Benzyloxy)-4,6-dihydroxyphenyl)(6-((4-methylpiperazin-1-yl)methyl)-8-((tetrahydrofuran-3-yl)amino)-3,4-dihydroisoquinolin-2(1H)-yl)methanone]

Continued, compound first:

Row | SMILES | IC50 [1] | IC50 [2]
9 | O=C(c1c(O)cc(O)cc1OCc1ccccn1)N1CCc2cccc(N[C@@H]3CCOC3)c2C1 [Example 56, (R)-(2,4-dihydroxy-6-(pyridin-2-ylmethoxy)phenyl)(8-((tetrahydrofuran-3-yl)amino)-3,4-dihydroisoquinolin-2(1H)-yl)methanone] | < 1000 nM | > 10 µM
10 | O=C(c1c(O)cc(O)cc1OCc1ccccc1)N1Cc2ccccc2C1CO (stereo not shown) [Example 13, (2-(Benzyloxy)-4,6-dihydroxyphenyl)(1-(hydroxymethyl)isoindolin-2-yl)methanone] | < 1000 nM | 1 to 10 µM
11 | NC(=O)c1cccc(Nc2cccc3c2CN(C(=O)c2c(O)cc(O)cc2OCc2ccccc2)CC3)c1 [Example 74, 3-((2-(2-(Benzyloxy)-4,6-dihydroxybenzoyl)-1,2,3,4-tetrahydroisoquinolin-8-yl)amino)benzamide] | > 10000 nM | > 10 µM
12 | CN(C)Cc1ccc2c(c1)CN(C(=O)c1c(O)cc(O)cc1OCc1ccccc1)C2 [Example 11, (2-(Benzyloxy)-4,6-dihydroxyphenyl)(5-((dimethylamino)methyl)isoindolin-2-yl)methanone] | 1000 to 10000 nM | 1 to 10 µM
13 | CC(=O)N1CC(Nc2cccc3c2CN(C(=O)c2c(O)cc(O)cc2OCc2ccccc2)CC3)C1 [Example 146, 1-(3-((2-(2-(Benzyloxy)-4,6-dihydroxybenzoyl)-1,2,3,4-tetrahydroisoquinolin-8-yl)amino)azetidin-1-yl)ethan-1-one] | < 1000 nM | 1 to 10 µM
14 | O=C(c1c(O)cc(O)cc1OCc1ccccc1)N1Cc2ccccc2C(O)C1 (single isomer, unassigned) [Example 51, (2-Benzyloxy-4,6-dihydroxy-phenyl)-(4-hydroxy-3,4-dihydro-1H-isoquinolin-2-yl)methanone] | 1000 to 10000 nM | > 10 µM
15 | COc1cc2c(c(NC3CCOC3)c1)CN(C(=O)c1c(O)cc(O)cc1OCc1ccccc1)CC2 (single isomer, unassigned) [Example 73, (2-(Benzyloxy)-4,6-dihydroxyphenyl)(6-methoxy-8-((tetrahydrofuran-3-yl)amino)-3,4-dihydroisoquinolin-2(1H)-yl)methanone] | 1000 to 10000 nM | > 10 µM
16 | O=C(c1c(O)cc(O)cc1OCC1CCCCC1)N1CCc2cccc(NC3CCOC3)c2C1 (stereo not shown) [Example 28, (2-(Cyclohexylmethoxy)-4,6-dihydroxyphenyl)(8-((tetrahydrofuran-3-yl)amino)-3,4-dihydroisoquinolin-2(1H)-yl)methanone] | 1000 to 10000 nM | 1 to 10 µM
17 | O=C(c1c(O)cc(O)cc1OCc1ccccc1)N1Cc2ccc(CN3CCNCC3)cc2C1 [Example 3, (2-(Benzyloxy)-4,6-dihydroxyphenyl)(5-(piperazin-1-ylmethyl)isoindolin-2-yl)methanone] | < 1000 nM | 1 to 10 µM
18 | CC(=O)N1CCC[C@H](Nc2cccc3c2CN(C(=O)c2c(O)cc(O)cc2OCc2ccccc2)CC3)C1 [Example 67, (S)-1-(3-((2-(2-(Benzyloxy)-4,6-dihydroxybenzoyl)-1,2,3,4-tetrahydroisoquinolin-8-yl)amino)piperidin-1-yl)ethan-1-one] | 1000 to 10000 nM | > 10 µM
19 | O=C(c1c(O)cc(O)cc1OCc1ccccc1)N1CCc2cccc(NC3CCS(=O)(=O)C3)c2C1 (stereo not shown) [Example 147, (2-(Benzyloxy)-4,6-dihydroxyphenyl)(8-((1,1-dioxidotetrahydrothiophen-3-yl)amino)-3,4-dihydroisoquinolin-2(1H)-yl)methanone] | < 1000 nM | 1 to 10 µM
20 | O=C(c1c(O)cc(O)cc1OCc1cccnn1)N1Cc2cccc(NC3CCOC3)c2C1 (stereo not shown) [Example 99, (2,4-Dihydroxy-6-(pyridazin-3-ylmethoxy)phenyl)(4-((tetrahydrofuran-3-yl)amino)isoindolin-2-yl)methanone] | 1000 to 10000 nM | > 10 µM
21 | O=C(c1c(O)cc(O)cc1OCc1ccc(F)c(F)c1)N1Cc2cccc(NC3CCOC3)c2C1 (stereo not shown) [Example 38, (2-((3,4-Difluorobenzyl)oxy)-4,6-dihydroxyphenyl)(4-((tetrahydrofuran-3-yl)amino)isoindolin-2-yl)methanone] | < 1000 nM | 1 to 10 µM
22 | N#CC1CC(Oc2cccc3c2CN(C(=O)c2c(O)cc(O)cc2OCc2ccccc2)C3)C1 (stereo not shown) [Example 5, 3-((2-(2-(Benzyloxy)-4,6-dihydroxybenzoyl)isoindolin-4-yl)oxy)cyclobutane-1-carbonitrile] | 1000 to 10000 nM | 1 to 10 µM
23 | O=C(c1c(O)cc(O)cc1OCc1ccccc1)N1CCc2cccc(Nc3cncnc3)c2C1 [Example 71, (2-(Benzyloxy)-4,6-dihydroxyphenyl)(8-(pyrimidin-5-ylamino)-3,4-dihydroisoquinolin-2(1H)-yl)methanone] | < 1000 nM | 1 to 10 µM
24 | O=C(c1c(O)cc(O)cc1OCc1ccccc1)N1Cc2cccc(NC3CCOCC3)c2C1 [Example 15, (2-(Benzyloxy)-4,6-dihydroxyphenyl)(4-((tetrahydro-2H-pyran-4-yl)amino)isoindolin-2-yl)methanone] | < 1000 nM | 1 to 10 µM
25 | O=C(c1c(O)cc(O)cc1OCc1ccccc1)N1Cc2cccc(CNC3CCOC3)c2C1 (stereo not shown) [Example 80, (2-(Benzyloxy)-4,6-dihydroxyphenyl)(4-(((tetrahydrofuran-3-yl)amino)methyl)isoindolin-2-yl)methanone] | 1000 to 10000 nM | 1 to 10 µM
26 | O=C(c1c(O)cc(O)cc1OCc1ccccc1)N1Cc2cccc(OC3CCOC3)c2C1 (stereo not shown) [Example 88, (2-(Benzyloxy)-4,6-dihydroxyphenyl)(4-((tetrahydrofuran-3-yl)oxy)isoindolin-2-yl)methanone] | 1000 to 10000 nM | 1 to 10 µM

From patent US20240293392A1, “INHIBITOR COMPOUNDS” (NeoPhore Limited, priority 2021, published 2024)
